{
  "source": "patent US9808470B2",
  "about": "“Estrogenic components for use in the treatment of neurological disorders” (UNIVERSITE DE LIEGE, priority 2012, dated 2017)",
  "type_in_all_cases": "in vivo",
  "key": {"[1]": {"tested_on": "vascular endothelial growth factor (VEGF)", "test": "Ex.8 therapeutic HIE rat model: VEGF staining", "conditions": "5 mg/kg/day E4, hippocampus (same region)", "method": "(§1) To study the therapeutic effect of estetrol, newborn rat pups were assigned to one of the following 14 groups at postnatal day 7 (FIG. 23(B)): Sham group (n=12), Vehicle (n=15), 5 mg/kg/day E4 (n=11), 10 mg/kg/day E4 (n=11), 5 mg/kg/day E4+1.6 mg/kg/day PROG (n=11), 10 mg/kg/day E4+1.6 mg/kg/day PROG (n=11), 5 mg/kg/day E4+16 mg/kg/day PROG (n=11), 10 mg/kg/day E4+16 mg/kg/day PROG (n=13), 5 mg/kg/day E4+136 ng//kg/day E2 (n=11), 10 mg/kg/day E4+136 ng/kg/day E2 (n=11), 5 mg/kg/day E4+1.6 mg/kg/day PROG+136 ng/kg/day E2 (n=12), 10 mg/kg/day E4+1.6 mg/kg/day PROG+136 ng/kg/day E2 (n=11), 5 mg/kg/day E4+16 mg/kg/day PROG+136 ng/kg/day E2 (n=11), 10 mg/kg/day E4+16 mg/kg/day PROG+136 ng/kg/day (n=12) groups. […] After surgery, the pups were returned to their dams and allowed to recover for 1 hour. The pups were then placed in a humidified hypoxic in vivo cabinet (CoyLab). […]\nThe sections were heated in 10 mmol/L citrate buffer (pH 6.0) at 100° C. for 10 minutes. […] Samples were analyzed with the aid of a microscope (Olympus Vanox AHBT3, Olympus), and the ImageJ software 15 (NIH). The percentage of positively stained cells was quantified as a sum of positively stained either DCX or VEGF cells divided by the total number of DAPI positive cells expressed in percentage."}, "[2]": {"test": "Ex.8 therapeutic HIE rat model: brain weight and brain-body weight ratio", "conditions": "10 mg/kg/day E4, PND14, vs vehicle", "method": "All the compounds used for in vivo studies were dissolved in absolute Ethanol (ETOH) and further diluted in saline solution at a final concentration of ETOH 10%. An equal volume (5 μ1/g) of the solution was injected intraperitoneally (ip) into the pups from study groups. Rat pups from the vehicle group were ip injected a saline solution containing 10% ETOH. Rat pups from the Sham group were not injected at all.\nas §1"}, "[3]": {"tested_on": "vascular endothelial growth factor (VEGF)", "test": "Ex.4 therapeutic HIE rat model: VEGF staining", "method": "The sections were heated in 10 mmol/L citrate buffer (pH 6.0) at 100° C. for 10 minutes. Endogenous peroxidase activity was blocked with 3% hydrogen peroxide for 10 minutes and after a second blocking with 5% normal goat serum, the sections were incubated with anti-doublecortin (DCX) antibody, diluted 1:1000 (rabbit polyclonal antibody; Abcam, Cambridge, UK) and anti-vascular endothelial growth factor (VEGF) antibody, diluted 1:100 (mouse monoclonal antibody; Abcam, Cambridge, UK) overnight at 4° C. After rinsing, Alexa Fluor® goat anti-rabbit, diluted 1:1000 and Alexa Fluor® goat anti-mouse, diluted 1:1000 (Invitrogen Inc., Ghent, Belgium) were added and sections were incubated 1 h at room temperature. Mounting medium containing 4′,6-diamidino-2-phenylindole (DAPI) for fluorescent studies was used (Vector Laboratories). Samples were analyzed with the aid of a microscope (Olympus Vanox AHBT3, Olympus), and the ImageJ software (NIH). The percentage of positively stained cells was quantified as a sum of positively stained either DCX or VEGF cells divided by the total number of DAPI positive cells expressed in percentage.\nTo study the therapeutic effect of estetrol, newborn rat pups were assigned to one of the following 6 groups at postnatal day 7: sham group (n=29), vehicle group (n=20), 1 mg/kg E4 group (n=16), 5 mg/kg E4 group (n=19), 10 mg/kg day E4 (n=17) and 50 mg/kg day E4 group (n=15). At postnatal day 7 animals were anesthetized with isoflurane (induction, 3.0%; maintenance, 1.5%), and the rat pups from vehicle and E4 groups passed through surgery encompassing left common carotid artery double ligation and cut. After surgery, the pups were returned to their dams and allowed to recover for 1 hour. The pups were then placed in a humidified hypoxic in vivo cabinet (CoyLab). Hypoxia was produced by the inhalation of 11%-8% of oxygen balanced by nitrogen at decreased concentration of oxygen for 20 minutes, followed by inhalation of 8% oxygen and 92% nitrogen at constant concentration for 35 minutes. All the manipulations were performed at 37° C.\nUpon retrieval from the hypoxia chamber the rat pups were injected intraperitoneally either by vehicle (vehicle group) or by E4 (1 mg/kg, 5 mg/kg, 10 mg/kg or 50 mg/kg) in accordance to the group assignment. The animals from the sham group went through similar procedures but proceeded neither left common carotid artery ligation and cut followed by hypoxia nor vehicle or estetrol administration. Rat pups recovered with their dams until being sacrificed at postnatal day 14."}},
  "data": [
    {"smiles": "C[C@]12CC[C@@H]3c4ccc(O)cc4CC[C@H]3[C@@H]1[C@@H](O)[C@@H](O)[C@@H]2O", "note": "[E4, 1,3,5(10)-estratrien-3,15α,16α,17β-tetrol]", "values": [
      {"measurement": "VEGF positively stained cell percentage", "setting": "[1]", "result": "54.05±3.51", "unit": "%"},
      {"measurement": "brain weight", "setting": "[2]", "result": "significantly higher brain weight than the vehicle alone"},
      {"measurement": "percentage of VEGF positively stained cells", "setting": "[3]; 5 mg/kg E4 single ip dose after HI, CA1", "result": "37.4±4.833", "unit": "%"},
      {"measurement": "percentage of VEGF positively stained cells", "setting": "[3]; 10 mg/kg E4 single ip dose after HI, CA1", "result": "37.1±3.84", "unit": "%"},
      {"measurement": "percentage of VEGF positively stained cells", "setting": "[3]; 10 mg/kg E4 single ip dose after HI, cortex", "result": "49.4±4.949", "unit": "%"},
      {"measurement": "percentage of VEGF positively stained cells", "setting": "[3]; 50 mg/kg E4 single ip dose after HI, CA1", "result": "45.1±4.753", "unit": "%"},
      {"measurement": "percentage of VEGF positively stained cells", "setting": "[3]; E4 1, 5, 10, 50 mg/kg single ip dose after HI, CA2/CA3, between study groups", "result": "not significantly different between the study groups"},
      {"measurement": "VEGF staining", "setting": "[3]; E4 1, 5, 10, 50 mg/kg single ip dose after HI, DG, among study groups", "result": "neither DCX nor VEGF staining was significantly different"}
    ]}
  ]
}
